# Legend:
# Rhinovirus 16 [1] = assay: Rhinovirus 16 infection of NCI-H292 airway epithelial cells, quantified by viral plaque assay on HeLa cells; format: cell-based, Rhinovirus 16 (major group) in human NCI-H292 cells; conditions: AG 1478 10 μM; RV16 MOI 10; NCI-H292 cell lysates; n=2
# Method: The effect of an EGF-R inhibitor on rhinovirus infectivity was assayed. First, human airway epithelial (NCI-H292 American Type Culture Collection Catalog No. CRL-1848) cells were treated with Rhinovirus 16 (major group Rhinovirus (RV) at multiplicity of infection (MOI) 10) or RV16 plus a selective EGFR tyrosine kinase inhibitor (AG 1478) at 10 μM. Cell lysates from these NCI-H292 cell cultures were collected at […]. To quantitate Rhinovirus infection in airway epithelial cells, cell lysates were analyzed by viral plaque assay, a technique that is commonly utilized to measure viral infection. Next, serial dilutions of NCI-H292 cell lysates were placed on HeLa cell cultures for a standard plaque assay. Cell cultures were covered with an agarose overlay. Cultures were incubated for three days. After three days, cell cultures were stained with crystal violet and the number of plaques was counted. […] FIG. 1A. […]
# The effect of an antibody specific for EGF-R on Rhinovirus 16 (RV16) infection was also assessed. […]
# FIGS. 1A and 1B. Viral quantification of Rhinovirus infection by plaque assay. […] Cell lysates were collected after 24 h and Rhinovirus infection was quantified by plaque assay [(A) n=2±SEM; (B) n=1].
# Rhinovirus 16 [2] = assay: Rhinovirus 16 infection of HeLa cells measured by flow cytometry; format: cell-based, Rhinovirus 16 (major group) in HeLa cells; conditions: RV16 MOI 10, 6 h, RV alone 62%, control 1%
# Method: HeLa is an epithelial cell line that is routinely used to evaluate Rhinovirus infection. HeLa; American Type Culture Collections (ATCC) No. CCL-2. Here, HeLa cell cultures were treated with serum-free medium (Control), or with serum-free medium containing Rhinovirus 16 (major group RV at multiplicity of infection (MOI) 10) with and without a selective EGFR tyrosine kinase inhibitor (AG 1478). After 6 h, cell cultures were collected and stained with a monoclonal antibody that selectively binds to Rhinovirus. Cells were processed for flow cytometry and Rhinovirus infection in HeLa cells was measured. The data, shown in FIG. 2, are expressed as percent infected cells. Control (no RV): 1%; RV: 62%; RV+AG1478 (5 μM): 13%; and RV+AG1478 (10 μM): 9%. […] No effect with a platelet derived growth factor (PDGF) inhibitor (another tyrosine kinase inhibitor) was observed.
# Influenza A/H1N1/PR8 = format: cell-based; conditions: 10 μM; 24 h; MOI~1; eight fields at 20×; n=4; Influenza alone 316±19 cells; p<0.0001
# [3] = test system: respiratory syncytial virus (RSV); assay: RSV infection of epithelial HeLa cell cultures, viral quantification by TCID50; format: cell-based
# Method: To study the effect of a selective EGFR inhibitor on RSV infection, viral quantification by tissue culture-infective dose (TCID50)/100 μL in epithelial HeLa cell cultures treated with or without the selective EGFR tyrosine kinase inhibitor AG 1478 was used. […] FIG. 4A, RSV alone 10^2.5±1 TCID50 vs RSV plus AG 1478 (10 μM) 0 TCID50; n=2. FIG. 4B, RSV alone 10^4.38±0.1 TCID50 vs RSV plus AG 1478 (1 μM) 0 TCID50; n=2.
# FIGS. 4A and 4B. Viral quantification by tissue culture-infective dose (TCID50)/100 μL in epithelial cell cultures treated with or without the selective EGFR inhibitor, AG 1478 [(A) AG1478 (10 μM) in TCID50/100 μL at 2 days ±SEM, (n=2 separate experiments); (B) AG 1478 (1 μM) in TCID50/100 μL at 4 days ±SEM, (n=2 separate experiments).
# A similar set of experiments was conducted, to test the effect of Gefitinib (Iressa; ZD 1839; N-(3-chloro-4-fluoro-phenyl)-7-methoxy-6-(3-morpholin-4-ylpropoxy)quinazolin-4-amine) on RSV infection. Gefitinib (1 and 10 μM) suppressed RSV virus infection. The data are shown in FIG. 5 (RSV alone 10^1.5 TCID50 (first column), RSV plus Gefitinib (1 μM) 0 TCID50 (second column), and RSV plus Gefitinib (10 μM) 0 TCID50 (third column); n=1).
# FIG. 5. Viral quantification by tissue culture-infective dose (TCID50)/100 μL at 2 days in epithelial cell cultures treated with or without the selective EGFR inhibitor, Gefitinib. RSV alone (first column), RSV plus Gefitinib (1 μM, second column), and RSV plus Gefitinib (10 μM, third column); n=1.
SMILES,Rhinovirus infection by plaque assay (Rhinovirus 16 [1]),percent infected cells (Rhinovirus 16 [2]; 5 μM) [%],percent infected cells (Rhinovirus 16 [2]; 10 μM) [%],cells staining positive for Influenza (Influenza A/H1N1/PR8) [cells],"RSV tissue culture-infective dose (TCID50) ([3]; 1 μM, at 4 days, HeLa, RSV alone 10^4.38±0.1, n=2) [TCID50/100 μL]","RSV tissue culture-infective dose (TCID50) ([3]; 10 μM, at 2 days, HeLa) [TCID50/100 μL]","RSV tissue culture-infective dose (TCID50) ([3]; 1 μM, at 2 days, RSV alone 10^1.5, n=1) [TCID50/100 μL]"
"COc1cc2ncnc(Nc3cccc(Cl)c3)c2cc1OC [AG 1478, 4-(3-chlorophenylamino)-6,7-dimethoxyquinazoline]",suppress rhinovirus infection,13,9,94±49,0,0,
"COc1cc2ncnc(Nc3ccc(F)c(Cl)c3)c2cc1OCCCN1CCOCC1 [Gefitinib, N-(3-chloro-4-fluoro-phenyl)-7-methoxy-6-(3-morpholin-4-ylpropoxy)quinazolin-4-amine]",,,,,,0,0
